Counter-ions that a name gives are not always drawn.
Target: T1, human full length HSD11 β 1 (Homo sapiens, UniProt P28845)
T1 construct: transient expression of human full length HSD11 β 1 expression vector; host or cells: CHO cells (transient transfection)
Test: In Vitro HSD11β1 Inhibition Assay
Assay type: cell-based
Conditions: CHO cells transiently expressing human HSD11β1; 200 nM cortisone+500 uM NADPH overnight; cortisone to cortisol by LC/MS-MS; read-out: 11βHSD1 (IC50)
How it was run: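 CHO cells transiently transfected with human full-length HSD11β1 were re-seeded after 24 h and, 24 h later, incubated overnight with 200 nM cortisone plus 500 uM NADPH and inhibitor. Cortisone-to-cortisol conversion was measured by LC/MS-MS. IC50 from an 8-point log concentration–inhibition curve.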

T1 sequence (P28845 whole entry): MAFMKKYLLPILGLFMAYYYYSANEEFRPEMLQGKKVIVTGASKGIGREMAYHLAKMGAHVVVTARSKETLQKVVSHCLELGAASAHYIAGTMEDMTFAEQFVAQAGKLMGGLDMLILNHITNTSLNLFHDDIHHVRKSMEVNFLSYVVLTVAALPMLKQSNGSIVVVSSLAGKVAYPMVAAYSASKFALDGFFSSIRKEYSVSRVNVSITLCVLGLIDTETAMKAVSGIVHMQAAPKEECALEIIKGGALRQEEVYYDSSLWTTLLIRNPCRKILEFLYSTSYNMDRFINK

IC50 [µM]	Structure (SMILES)
> 0.25	N#CC(Cc1c[nH]c2ccccc12)C(=O)N1CCCC2CCCCC21 (centres unmarked) [Example 98, 2-(1H-indol-3-ylmethyl)-3-(octahydroquinolin-1(2H)-yl)-3-oxopropanenitrile]
> 0.25	O=C(COc1c[nH]c2ccccc12)N1CCCC2CCCCC21 (centres unmarked) [Example 99, 2-(1H-indol-3-yloxy)-1-(octahydroquinolin-1(2H)-yl)ethanone]
> 0.25	CC(Oc1cn(C)c2ccccc12)C(=O)N1CCCC2CCCCC21 (centres unmarked) [Example 100, 2-[(1-methyl-1H-indol-3-yl)oxy]-1-(octahydroquinolin-1(2H)-yl)propan-1-one]
> 0.25	COC(=O)C1CCN(C(=O)CC(c2c[nH]c3ccccc23)C(C)C)C2CCCCC12 (centres unmarked) [Example 101, methyl 1-[3-(1H-indol-3-yl)-4-methylpentanoyl]decahydroquinoline-4-carboxylate]
> 0.25	COC(=O)C1CCN(C(=O)CC(C)c2c[nH]c3ccccc23)C2CCCCC12 (centres unmarked) [Example 102, methyl 1-[3-(1H-indol-3-yl)butanoyl]decahydroquinoline-4-carboxylate]
> 0.25	CC(CC(=O)N1CCC(=O)C2CCCCC21)c1c[nH]c2ccccc12 (centres unmarked) [Example 103, 1-[3-(1H-indol-3-yl)butanoyl]octahydroquinolin-4(1H)-one]
> 0.25	CC(C)C(CC(=O)N1CCC(=O)C2CCCCC21)c1c[nH]c2ccccc12 (centres unmarked) [Example 104, 1-[3-(1H-indol-3-yl)-4-methylpentanoyl]octahydroquinolin-4(1H)-one]
> 0.25	CC(C)C(CC(=O)N1CCC(C(=O)O)C2CCCCC21)c1c[nH]c2ccccc12 (centres unmarked) [Example 105, 1-[3-(1H-indol-3-yl)-4-methylpentanoyl]decahydroquinoline-4-carboxylic acid]
> 0.25	CC(CC(=O)N1CCC(O)C2CCCCC21)c1c[nH]c2ccccc12 (centres unmarked) [Example 106, 1-(4-hydroxyoctahydroquinolin-1(2H)-yl)-3-(1H-indol-3-yl)butan-1-one]
> 0.25	CC(C)C(CC(=O)N1CCC(C(=O)O)C2CCCCC21)c1c[nH]c2ccccc12 (centres unmarked) [Example 107, 1-[3-(1H-indol-3-yl)-4-methylpentanoyl]decahydroquinoline-4-carboxylic acid sodium salt]
> 0.25	O=C(CC(O)(c1c[nH]c2ccccc12)C(F)(F)F)N1CCCC2CCCCC21 (centres unmarked) [Example 108, 4,4,4-trifluoro-3-hydroxy-3-(1H-indol-3-yl)-1-(octahydroquinolin-1(2H)-yl)butan-1-one]
> 0.25	N#CC(CC(=O)N1CCCC2CCCCC21)c1c[nH]c2ccccc12 (centres unmarked) [Example 109, 2-(1H-indol-3-yl)-4-(octahydroquinolin-1(2H)-yl)-4-oxobutanenitrile]
> 0.25	CC(C)(c1c[nH]c2ccccc12)C(C#N)C(=O)N1CCCC2CCCCC21 (centres unmarked) [Example 110, 3-(1H-indol-3-yl)-3-methyl-2-(octahydroquinolin-1(2H)-ylcarbonyl)butanenitrile]
< 0.1	CC(C)C(CC(=O)N1CCCC2CCCCC21)c1c[nH]c2cccc(F)c12 (centres unmarked) [Example 111, 3-(4-fluoro-1H-indol-3-yl)-4-methyl-1-(octahydroquinolin-1(2H)-yl)pentan-1-one]
< 0.1	CC(C)C(CC(=O)N1CCCC2(C)CCCCC12)c1c[nH]c2cccc(F)c12 (centres unmarked) [Example 112, 3-(4-fluoro-1H-indol-3-yl)-4-methyl-1-(4a-methyloctahydroquinolin-1(2H)-yl)pentan-1-one]
> 0.25	CC(CC(=O)N1CCCC2(C)CCCCC12)c1cn(C)c2ccccc12 (centres unmarked) [Example 113, 3-(1-methyl-1H-Indol-3-yl)-1-(4a-methyloctahydroquinolin-1(2H)-yl)butan-1-one]
< 0.1	CC(CC(=O)N1CCCC2(C)CCCCC12)c1c[nH]c2cccc(F)c12 (centres unmarked) [Example 114, 3-(4-fluoro-1H-indol-3-yl)-1-(4a-methyloctahydroquinolin-1(2H)-yl)butan-1-one]
< 0.1	CC(CC(=O)N1CCCC2CCCCC21)c1c[nH]c2cccc(F)c12 (centres unmarked) [Example 121, 3-(4-fluoro-1H-indol-3-yl)-1-(octahydroquinolin-1(2H)-yl)butan-1-one]
> 0.25	CC(CC(=O)N1CCC[C@H]2CCCC[C@@H]21)c1c[nH]c2cccc(Cl)c12 (stereo partly drawn) [Example 126, 3-(4-chloro-1H-indol-3-yl)-1-[trans-(4a,8a)-octahydroquinolin-1(2H)-yl]butan-1-one]
> 0.25	CCOC(=O)C12CCCCC1N(C(=O)CC(C)c1c[nH]c3cccc(Cl)c13)CCC2 (centres unmarked) [Example 127, ethyl 1-[3-(4-chloro-1H-indol-3-yl)butanoyl]octahydroquinoline-4a(2H)-carboxylate]
> 0.25	CC(CC(=O)N1CCCC2(c3ccccc3)CCCCC12)c1c[nH]c2cccc(Cl)c12 (centres unmarked) [Example 128, 3-(4-chloro-1H-indol-3-yl)-1-(4a-phenyloctahydroquinolin-1(2H)-yl)butan-1-one]

IC50 [µM]	Structure (SMILES)
> 0.25	CC(CC(=O)N1CCCC2(C(=O)O)CCCCC12)c1c[nH]c2cccc(Cl)c12 (centres unmarked) [Example 129, 1-[3-(4-chloro-1H-indol-3-yl)butanoyl]octahydroquinoline-4a(2H)-carboxylic acid]
> 0.25	CC(CC(=O)N1CCCC2(CO)CCCCC12)c1c[nH]c2cccc(Cl)c12 (centres unmarked) [Example 130, 3-(4-chloro-1H-indol-3-yl)-1-[4a-(hydroxymethyl)octahydroquinolin-1(2H)-yl]butan-1-one]
> 0.25	CC(CC(=O)N1CCCC2(CO)CCCCC12)c1c[nH]c2ccccc12 (centres unmarked) [Example 131, 1-[4a-(hydroxymethyl)octahydroquinolin-1(2H)-yl]-3-(1H-indol-3-yl)butan-1-one]
0.15 to 0.2	Cc1cccc2[nH]cc(C(C)CC(=O)N3CCCC4(O)CCCCC34)c12 (centres unmarked) [Example 132, 1-(4a-hydroxyoctahydroquinolin-1(2H)-yl)-3-(4-methyl-1H-indol-3-yl)butan-1-one]
> 0.25	CC(C)C(CC(=O)N1CCOC2CCCCC21)c1c[nH]c2ccccc12 (centres unmarked) [Example 133, 3-(1H-indol-3-yl)-4-methyl-1-(octahydro-4H-1,4-benzoxazin-4-yl)pentan-1-one]
> 0.25	CC(C)C(CC(=O)N1CCOC2CCCCC21)c1cn(C)c2ccccc12 (centres unmarked) [Example 134, 4-methyl-3-(1-methyl-1H-indol-3-yl)-1-(octahydro-4H-1,4-benzoxazin-4-yl)pentan-1-one]
> 0.25	CC(C)C(CC(=O)N1CCOC2CCCCC21)c1c[nH]c2cccc(F)c12 (centres unmarked) [Example 135, 3-(4-fluoro-1H-indol-3-yl)-4-methyl-1-(octahydro-4H-1,4-benzoxazin-4-yl)pentan-1-one]
> 0.25	CC(CC(=O)N1CCOC2CCCCC21)c1c[nH]c2cccc(F)c12 (centres unmarked) [Example 136, 3-(4-fluoro-1H-indol-3-yl)-1-(octahydro-4H-1,4-benzoxazin-4-yl)butan-1-one]
> 0.25	CCOC(=O)C12CCCCC1N(C(=O)CC(C)c1nc3ccccc3s1)CCC2 (centres unmarked) [Example 141, ethyl 1-[3-(1,3-benzothiazol-2-yl)butanoyl]octahydroquinoline-4a(2H)-carboxylate]
< 0.1	CC(CC(=O)N1CCC2CCCCC21)c1nc2ccccc2s1 (centres unmarked) [Example 142, 3-(1,3-benzothiazol-2-yl)-1-(octahydro-1H-indol-1-yl)butan-1-one]
< 0.1	CC(CC(=O)N1CCCC2CCCCC21)c1c[nH]c2ncccc12 (centres unmarked) [Example 143, 1-(octahydroquinolin-1(2H)-yl)-3-(1H-pyrrolo[2,3-b]pyridin-3-yl)butan-1-one]
> 0.25	CC(CC(=O)N1CCCC2(CO)CCCCC12)c1c[nH]c2ncccc12 (centres unmarked) [Example 146, 1-[4a-(hydroxymethyl)octahydroquinolin-1(2H)-yl]-3-(1H-pyrrolo[2,3-b]pyridin-3-yl)butan-1-one]
> 0.25	CC(CC(=O)N1CCCC2(CO)CCCCC12)c1c[nH]c2nccc(Cl)c12 (centres unmarked) [Example 147, 3-(4-chloro-1H-pyrrolo[2,3-b]pyridin-3-yl)-1-[4a-(hydroxymethyl)octahydroquinolin-1(2H)-yl]butan-1-one]
> 0.25	CC(CC(=O)N1CCCC2(O)CCCCC12)c1c[nH]c2ncccc12 (centres unmarked) [Example 148, 1-(4a-hydroxyoctahydroquinolin-1(2H)-yl)-3-(1H-pyrrolo[2,3-b]pyridin-3-yl)butan-1-one]
> 0.25	Cc1cccc2[nH]cc(C(C)CC(=O)N3CCCC4(C#N)CCCCC34)c12 (centres unmarked) [Example 149, 1-[3-(4-methyl-1H-indol-3-yl)butanoyl]octahydroquinoline-4a(2H)-carbonitrile]
> 0.25	O=C(O)C1CCN(C(=O)CC(c2ccccc2)c2nc3ccccc3s2)C2CCCCC12 (centres unmarked) [Example 152, 1-[3-(1,3-benzothiazol-2-yl)-3-phenylpropanoyl]decahydroquinoline-4-carboxylic acid]
0.15 to 0.2	COC12CCCCC1N(C(=O)CC(C)c1c[nH]c3ncccc13)CCC2 (centres unmarked) [Example 153, 1-(4a-methoxyoctahydroquinolin-1(2H)-yl)-3-(1H-pyrrolo[2,3-b]pyridin-3-yl)butan-1-one]
> 0.25	CC(CC(=O)N1CCC(C(=O)O)C2CCCCC21)c1nc2ccccc2s1 (centres unmarked) [Example 154, 1-[3-(1,3-benzothiazol-2-yl)butanoyl]decahydroquinoline-4-carboxylic acid]
> 0.25	O=C(O)C1CCN(C(=O)CC(c2ccccc2)c2c[nH]c3cccc(Cl)c23)C2CCCCC12 (centres unmarked) [Example 155, 1-[3-(4-chloro-1H-indol-3-yl)-3-phenylpropanoyl]decahydroquinoline-4-carboxylic acid]
< 0.1	O=C(O)C1CCN(C(=O)CC(c2cccs2)c2c[nH]c3cccc(F)c23)C2CCCCC12 (centres unmarked) [Example 156, 1-[3-(4-fluoro-1H-indol-3-yl)-3-(thiophen-2-yl)propanoyl]decahydroquinoline-4-carboxylic acid]

Reference: patent US9453014B2, “Cyclic amide derivatives as inhibitors of 11-β-hydroxysteroid dehydrogenase and uses thereof” (CONNEXIOS LIFE SCIENCES PVT. LTD., priority 2011, dated 2016)
